Test system: not listed separately
Experiment: Ratio of drug uptake in pons to cerebellum in anesthetized cynomolgus monkey after 85 mins postinjection
Assay type: ADME, organism-based, Macaca fascicularis
Conditions: in vivo

Row | SMILES | Ratio
1 | O=C(OCC[18F])C1C2CCC(CC1c1cccc(/C=C\Br)c1)N2 (stereo not drawn) | 1.4

Test system: Midbrain
Experiment: Drug uptake in anesthetized cynomolgus monkey brain midbrain after 1.5 mins postinjection
Assay type: ADME, organism-based, Macaca fascicularis
Design: unit not given here
Conditions: in vivo, 0.025 h

Row | SMILES | Drug uptake
2 | O=C(OCC[18F])C1C2CCC(CC1c1cccc(/C=C\Br)c1)N2 (stereo not drawn) | 0.08

Test system: Medulla
Experiment: Drug uptake in anesthetized cynomolgus monkey brain medulla after 195 mins postinjection
Assay type: ADME, organism-based, Macaca fascicularis
Conditions: in vivo, 3.25 h

Row | SMILES | Drug uptake
3 | O=C(OCC[18F])C1C2CCC(CC1c1cccc(/C=C\Br)c1)N2 (stereo not drawn) | 3.34

Test system: not listed separately
Experiment: Ratio of drug uptake in medulla to cerebellum in anesthetized cynomolgus monkey after 185 mins postinjection
Assay type: ADME, organism-based, Macaca fascicularis
Conditions: in vivo

Row | SMILES | Ratio
4 | O=C(OCC[18F])C1C2CCC(CC1c1cccc(/C=C\Br)c1)N2 (stereo not drawn) | 1.9

Test system: not listed separately
Experiment: Drug uptake in anesthetized cynomolgus monkey brain cerebellum after 225 mins postinjection
Assay type: ADME, organism-based, Macaca fascicularis
Conditions: in vivo, 3.75 h

Row | SMILES | Drug uptake
5 | O=C(OCC[18F])C1C2CCC(CC1c1cccc(/C=C\Br)c1)N2 (stereo not drawn) | 1.64

Test system: Thalamus
Experiment: Drug uptake in anesthetized cynomolgus monkey brain thalamus after 205 mins postinjection
Assay type: ADME, organism-based, Macaca fascicularis
Conditions: in vivo

Row | SMILES | Drug uptake
6 | O=C(OCC[18F])C1C2CCC(CC1c1cccc(/C=C\Br)c1)N2 (stereo not drawn) | 3.3

Test system: not listed separately
Experiment: Ratio of drug uptake in pons to cerebellum in anesthetized cynomolgus monkey after 185 mins postinjection
Assay type: ADME, organism-based, Macaca fascicularis
Conditions: in vivo

Row | SMILES | Ratio
7 | O=C(OCC[18F])C1C2CCC(CC1c1cccc(/C=C\Br)c1)N2 (stereo not drawn) | 1.9

Test system: not listed separately
Experiment: Ratio of drug uptake in thalamus to cerebellum in anesthetized cynomolgus monkey after 95 mins postinjection
Assay type: ADME, organism-based, Macaca fascicularis
Conditions: in vivo

Row | SMILES | Ratio
8 | O=C(OCC[18F])C1C2CCC(CC1c1cccc(/C=C\Br)c1)N2 (stereo not drawn) | 1.4

Test system: Thalamus
Experiment: Drug uptake in anesthetized cynomolgus monkey brain thalamus after 0.5 mins postinjection
Assay type: ADME, organism-based, Macaca fascicularis
Conditions: in vivo

Row | SMILES | Drug uptake
9 | O=C(OCC[18F])C1C2CCC(CC1c1cccc(/C=C\Br)c1)N2 (stereo not drawn) | 0

Test system: Putamen
Experiment: Drug uptake in anesthetized cynomolgus monkey brain putamen after 35 mins postinjection
Assay type: ADME, organism-based, Macaca fascicularis
Design: unit not given here
Conditions: in vivo

Row | SMILES | Drug uptake
10 | O=C(OCC[18F])C1C2CCC(CC1c1cccc(/C=C\Br)c1)N2 (stereo not drawn) | 4.8

Test system: Putamen
Experiment: Drug uptake in anesthetized cynomolgus monkey brain putamen after 105 mins postinjection
Assay type: ADME, organism-based, Macaca fascicularis
Design: unit not given here
Conditions: in vivo, 1.75 h

Row | SMILES | Drug uptake
11 | O=C(OCC[18F])C1C2CCC(CC1c1cccc(/C=C\Br)c1)N2 (stereo not drawn) | 4.82

Test system: Thalamus
Experiment: Drug uptake in anesthetized cynomolgus monkey brain thalamus after 135 mins postinjection
Assay type: ADME, organism-based, Macaca fascicularis
Design: unit not given here
Conditions: in vivo, 2.25 h

Row | SMILES | Drug uptake
12 | O=C(OCC[18F])C1C2CCC(CC1c1cccc(/C=C\Br)c1)N2 (stereo not drawn) | 4.03

Test system: not listed separately
Experiment: Drug uptake in anesthetized cynomolgus monkey brain frontal lobe after 195 mins postinjection
Assay type: ADME, organism-based, Macaca fascicularis
Conditions: in vivo, 3.25 h

Row | SMILES | Drug uptake
13 | O=C(OCC[18F])C1C2CCC(CC1c1cccc(/C=C\Br)c1)N2 (stereo not drawn) | 2.18

Test system: Caudate
Experiment: Drug uptake in anesthetized cynomolgus monkey brain caudate after 0.5 mins postinjection
Assay type: ADME, organism-based, Macaca fascicularis, Caudate nucleus
Conditions: in vivo

Row | SMILES | Drug uptake
14 | O=C(OCC[18F])C1C2CCC(CC1c1cccc(/C=C\Br)c1)N2 (stereo not drawn) | 0

Test system: not listed separately
Experiment: Drug uptake in anesthetized cynomolgus monkey brain cerebellum after 22.5 mins postinjection
Assay type: ADME, organism-based, Macaca fascicularis
Conditions: in vivo, 0.375 h

Row | SMILES | Drug uptake
15 | O=C(OCC[18F])C1C2CCC(CC1c1cccc(/C=C\Br)c1)N2 (stereo not drawn) | 3.81

Test system: Caudate
Experiment: Drug uptake in anesthetized cynomolgus monkey brain caudate after 165 mins postinjection
Assay type: ADME, organism-based, Macaca fascicularis, Caudate nucleus
Conditions: in vivo, 2.75 h

Row | SMILES | Drug uptake
16 | O=C(OCC[18F])C1C2CCC(CC1c1cccc(/C=C\Br)c1)N2 (stereo not drawn) | 3.44

Test system: not listed separately
Experiment: Ratio of drug uptake in caudate to cerebellum in anesthetized cynomolgus monkey after 65 mins postinjection
Assay type: ADME, organism-based, Macaca fascicularis
Conditions: in vivo

Row | SMILES | Ratio
17 | O=C(OCC[18F])C1C2CCC(CC1c1cccc(/C=C\Br)c1)N2 (stereo not drawn) | 1.2

Test system: not listed separately
Experiment: Drug uptake in anesthetized cynomolgus monkey brain cerebellum after 2.5 mins postinjection
Assay type: ADME, organism-based, Macaca fascicularis
Conditions: in vivo

Row | SMILES | Drug uptake
18 | O=C(OCC[18F])C1C2CCC(CC1c1cccc(/C=C\Br)c1)N2 (stereo not drawn) | 0.42

Test system: Caudate
Experiment: Drug uptake in anesthetized cynomolgus monkey brain caudate after 15.5 mins postinjection
Assay type: ADME, organism-based, Macaca fascicularis, Caudate nucleus
Conditions: in vivo

Row | SMILES | Drug uptake
19 | O=C(OCC[18F])C1C2CCC(CC1c1cccc(/C=C\Br)c1)N2 (stereo not drawn) | 2.89

Test system: Thalamus
Experiment: Drug uptake in anesthetized cynomolgus monkey brain thalamus after 235 mins postinjection
Assay type: ADME, organism-based, Macaca fascicularis
Design: unit not given here
Conditions: in vivo

Row | SMILES | Drug uptake
20 | O=C(OCC[18F])C1C2CCC(CC1c1cccc(/C=C\Br)c1)N2 (stereo not drawn) | 2.88

Test system: not listed separately
Experiment: Drug uptake in anesthetized cynomolgus monkey brain frontal lobe after 95 mins postinjection
Assay type: ADME, organism-based, Macaca fascicularis
Conditions: in vivo

Row | SMILES | Drug uptake
21 | O=C(OCC[18F])C1C2CCC(CC1c1cccc(/C=C\Br)c1)N2 (stereo not drawn) | 2.75

Test system: Caudate
Experiment: Drug uptake in anesthetized cynomolgus monkey brain caudate after 205 mins postinjection
Assay type: ADME, organism-based, Macaca fascicularis, Caudate nucleus
Conditions: in vivo

Row | SMILES | Drug uptake
22 | O=C(OCC[18F])C1C2CCC(CC1c1cccc(/C=C\Br)c1)N2 (stereo not drawn) | 2.92

Test system: not listed separately
Experiment: Ratio of drug uptake in putamen to cerebellum in anesthetized cynomolgus monkey after 65 mins postinjection
Assay type: ADME, organism-based, Macaca fascicularis
Conditions: in vivo

Row | SMILES | Ratio
23 | O=C(OCC[18F])C1C2CCC(CC1c1cccc(/C=C\Br)c1)N2 (stereo not drawn) | 1.5

Test system: Midbrain
Experiment: Drug uptake in anesthetized cynomolgus monkey brain midbrain after 155 mins postinjection
Assay type: ADME, organism-based, Macaca fascicularis
Conditions: in vivo

Row | SMILES | Drug uptake
24 | O=C(OCC[18F])C1C2CCC(CC1c1cccc(/C=C\Br)c1)N2 (stereo not drawn) | 4.54

Test system: not listed separately
Experiment: Drug uptake in anesthetized cynomolgus monkey brain occipital lobe after 3.5 mins postinjection
Assay type: ADME, organism-based, Macaca fascicularis
Conditions: in vivo

Row | SMILES | Drug uptake
25 | O=C(OCC[18F])C1C2CCC(CC1c1cccc(/C=C\Br)c1)N2 (stereo not drawn) | 0.64

Test system: not listed separately
Experiment: Ratio of drug uptake in occipital lobe to cerebellum in anesthetized cynomolgus monkey after 135 mins postinjection
Assay type: ADME, organism-based, Macaca fascicularis
Conditions: in vivo, 2.25 h

Row | SMILES | Ratio
26 | O=C(OCC[18F])C1C2CCC(CC1c1cccc(/C=C\Br)c1)N2 (stereo not drawn) | 1.1

Test system: not listed separately
Experiment: Ratio of drug uptake in frontal lobe to cerebellum in anesthetized cynomolgus monkey after 125 mins postinjection
Assay type: ADME, organism-based, Macaca fascicularis
Conditions: in vivo

Row | SMILES | Ratio
27 | O=C(OCC[18F])C1C2CCC(CC1c1cccc(/C=C\Br)c1)N2 (stereo not drawn) | 1

Test system: not listed separately
Experiment: Drug uptake in anesthetized cynomolgus monkey brain cerebellum after 15.5 mins postinjection
Assay type: ADME, organism-based, Macaca fascicularis
Conditions: in vivo

Row | SMILES | Drug uptake
28 | O=C(OCC[18F])C1C2CCC(CC1c1cccc(/C=C\Br)c1)N2 (stereo not drawn) | 3.57

Test system: not listed separately
Experiment: Drug uptake in anesthetized cynomolgus monkey brain frontal lobe after 27.5 mins postinjection
Assay type: ADME, organism-based, Macaca fascicularis
Conditions: in vivo

Row | SMILES | Drug uptake
29 | O=C(OCC[18F])C1C2CCC(CC1c1cccc(/C=C\Br)c1)N2 (stereo not drawn) | 2.69

Test system: not listed separately
Experiment: Ratio of drug uptake in thalamus to cerebellum in anesthetized cynomolgus monkey after 195 mins postinjection
Assay type: ADME, organism-based, Macaca fascicularis
Conditions: in vivo, 3.25 h

Row | SMILES | Ratio
30 | O=C(OCC[18F])C1C2CCC(CC1c1cccc(/C=C\Br)c1)N2 (stereo not drawn) | 1.8

Test system: Pons
Experiment: Drug uptake in anesthetized cynomolgus monkey brain pons after 27.5 mins postinjection
Assay type: ADME, organism-based, Macaca fascicularis
Conditions: in vivo

Row | SMILES | Drug uptake
31 | O=C(OCC[18F])C1C2CCC(CC1c1cccc(/C=C\Br)c1)N2 (stereo not drawn) | 4.1

Test system: not listed separately
Experiment: Ratio of drug uptake in pons to cerebellum in anesthetized cynomolgus monkey after 6.5 mins postinjection
Assay type: ADME, organism-based, Macaca fascicularis
Conditions: in vivo

Row | SMILES | Ratio
32 | O=C(OCC[18F])C1C2CCC(CC1c1cccc(/C=C\Br)c1)N2 (stereo not drawn) | 1

Test system: not listed separately
Experiment: Ratio of drug uptake in pons to cerebellum in anesthetized cynomolgus monkey after 145 mins postinjection
Assay type: ADME, organism-based, Macaca fascicularis
Conditions: in vivo

Row | SMILES | Ratio
33 | O=C(OCC[18F])C1C2CCC(CC1c1cccc(/C=C\Br)c1)N2 (stereo not drawn) | 1.8

Reference: ChEMBL document CHEMBL1151757, “Synthesis, radiosynthesis, and biological evaluation of fluorine-18-labeled 2beta-carbo(fluoroalkoxy)-3beta-(3'-((Z)-2-haloethenyl)phenyl)nortropanes: candidate radioligands for in vivo imaging of the serotonin transporter with positron emission tomography” (J Med Chem, 2008)
